PubChem BioAssay AID248 (DTP/NCI, 2004)
Several values for one entry are separate records, joined by “and”; a condition that tells them apart may be missing. Equal entries are not always repeated. Inconclusive results and toxic doses are left out. No stated cut-off is given here; in the data, active means T/C of 150% or more; inactive means T/C below 125%.

Tested on: L1210 leukemia ip in BDF1 mice, survival T/C
Test: NCI In Vivo Anticancer Drug Screen. Data for tumor model L1210 Leukemia (intraperitoneal) in B6D2F1 (BDF1) mice
Details: endpoint: mean survival time, higher = longer survival
How it was run: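 Read-out is survival time, reported as the treated-group measurement over the vehicle-control measurement.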

[1] = dose: 100.0 mg/kg/injection, schedule: Q01DX009 (ip), vehicle: saline with Tween-80
[2] = dose: 100.0 mg/kg/injection, schedule: Q04DX003 (ip), vehicle: saline with Tween-80
[3] = dose: 200.0 mg/kg/injection, schedule: Q01DX009 (ip), vehicle: saline with Tween-80
[4] = dose: 200.0 mg/kg/injection, schedule: Q04DX003 (ip), vehicle: saline with Tween-80
[5] = dose: 400.0 mg/kg/injection, schedule: Q01DX009 (ip), vehicle: saline with Tween-80
[6] = dose: 400.0 mg/kg/injection, schedule: Q04DX003 (ip), vehicle: saline with Tween-80
[7] = dose: 25.0 mg/kg/injection, schedule: Q04DX003 (ip), vehicle: saline
[8] = dose: 50.0 mg/kg/injection, schedule: Q04DX003 (ip), vehicle: saline
[9] = dose: 100.0 mg/kg/injection, schedule: Q01DX001 (ip), vehicle: saline with Tween-80
[10] = dose: 200.0 mg/kg/injection, schedule: Q01DX001 (ip), vehicle: saline with Tween-80
[11] = dose: 400.0 mg/kg/injection, schedule: Q01DX001 (ip), vehicle: saline with Tween-80
[12] = dose: 100.0 mg/kg/injection, schedule: Q01DX009 (ip), vehicle: saline
[13] = dose: 200.0 mg/kg/injection, schedule: Q01DX009 (ip), vehicle: saline
[14] = dose: 100.0 mg/kg/injection, schedule: Q01DX001 (ip), vehicle: Klucel (hydroxypropylcellulose) (HPC)
[15] = dose: 100.0 mg/kg/injection, schedule: Q01DX001 (ip), vehicle: saline
[16] = dose: 200.0 mg/kg/injection, schedule: Q01DX001 (ip), vehicle: saline
[17] = dose: 400.0 mg/kg/injection, schedule: Q01DX001 (ip), vehicle: Klucel (hydroxypropylcellulose) (HPC)
[18] = dose: 400.0 mg/kg/injection, schedule: Q01DX001 (ip), vehicle: saline
[19] = dose: 100.0 mg/kg/injection, schedule: Q04DX003 (ip), vehicle: Klucel (hydroxypropylcellulose) (HPC)
[20] = dose: 200.0 mg/kg/injection, schedule: Q04DX003 (ip), vehicle: Klucel (hydroxypropylcellulose) (HPC)
[21] = dose: 400.0 mg/kg/injection, schedule: Q04DX003 (ip), vehicle: Klucel (hydroxypropylcellulose) (HPC)
[22] = dose: 75.0 mg/kg/injection, schedule: Q01DX001 (ip), vehicle: saline
[23] = dose: 150.0 mg/kg/injection, schedule: Q01DX001 (ip), vehicle: saline
[24] = dose: 300.0 mg/kg/injection, schedule: Q01DX001 (ip), vehicle: saline
[25] = dose: 50.0 mg/kg/injection, schedule: Q01DX009 (ip), vehicle: saline
[26] = dose: 100.0 mg/kg/injection, schedule: Q04DX003 (ip), vehicle: saline
[27] = dose: 200.0 mg/kg/injection, schedule: Q04DX003 (ip), vehicle: saline
[28] = dose: 50.0 mg/kg/injection, schedule: Q01DX009 (ip), vehicle: saline with Tween-80
[29] = dose: 100.0 mg/kg/injection, schedule: Q01DX001 (ip), vehicle: carboxymethylcellulose (CMC)
[30] = dose: 200.0 mg/kg/injection, schedule: Q01DX001 (ip), vehicle: carboxymethylcellulose (CMC)
[31] = dose: 400.0 mg/kg/injection, schedule: Q01DX001 (ip), vehicle: carboxymethylcellulose (CMC)
[32] = dose: 12.5 mg/kg/injection, schedule: Q01DX009 (ip), vehicle: Klucel (hydroxypropylcellulose) (HPC)
[33] = dose: 50.0 mg/kg/injection, schedule: Q01DX001 (ip), vehicle: saline

Measured: T/C

OC1CC2CCC1CC2 (configuration not stated)
inactive: [1] 100 % of control | [2] 89 % of control | [3] 97 % of control | [4] 96 % of control | [5] 102 % of control | [6] 86 % of control

CC1(Cl)C(=O)NC(=O)NC1=O
inactive: [7] 96 % of control | [8] 96 % of control

O=c1[nH]cnc2c1ncn2Cc1ccccc1
inactive: [9] 104 % of control | [10] 102 % of control | [11] 96 % of control

CCN(CC)C(=S)[S][Pb]([c]1ccccc1)([c]1ccccc1)[c]1ccccc1
inactive: dose: 100.0 mg/kg/injection, schedule: Q01DX001 (ip), vehicle: steriod suspending solution 97 % of control | dose: 200.0 mg/kg/injection, schedule: Q01DX001 (ip), vehicle: steriod suspending solution 92 % of control

OCCOCC#CCOCCO
inactive: [12] 102 % of control | [13] 96 % of control | dose: 400.0 mg/kg/injection, schedule: Q01DX009 (ip), vehicle: saline 98 % of control

O=C(O)/C=C(\CC(=O)O)C(=O)O
inactive: [14] 95 % of control | [15] 92 % of control | [16] 90 % of control | [17] 95 % of control | [18] 98 % of control

O=C(O)COc1ccccc1Cl
inactive: [19] 105 % of control | [20] 104 % of control | [21] 107 % of control

CCOC(=O)Nc1cc2[nH]cnc2c(NC(=O)OCC)n1
inactive: [22] 95 % of control | [23] 101 % of control | [24] 92 % of control

OCCOC1CCCC=C1Cl (configuration not stated)
inactive: dose: 100.0 mg/kg/injection, schedule: Q01DX001 (ip), vehicle: acetone 95 % of control | dose: 200.0 mg/kg/injection, schedule: Q01DX001 (ip), vehicle: acetone 98 % of control | dose: 400.0 mg/kg/injection, schedule: Q01DX001 (ip), vehicle: acetone 91 % of control

c1ccc(-c2nnn(CCn3nnc(-c4ccccc4)n3)n2)cc1
inactive: [19] 102 % of control | [20] 104 % of control | [21] 98 % of control

NC(=S)N/N=C/c1ccncc1
inactive: [25] 96 % of control | [12] 98 % of control | [26] 96 % of control | [13] 93 % of control | [27] 91 % of control

O=C1NCCCN1C1OC(CO)C(O)C1O (configuration not stated)
inactive: dose: 100.0 mg/kg/injection, schedule: Q01DX005 (ip), vehicle: saline 107 % of control | dose: 200.0 mg/kg/injection, schedule: Q01DX005 (ip), vehicle: saline 104 % of control

CCNC(=O)N1CC2CCC(C1)N2C
inactive: [26] 113 % of control | [27] 106 % of control | dose: 400.0 mg/kg/injection, schedule: Q04DX003 (ip), vehicle: saline 98 % of control

CS(=O)CC(N)C(=O)O (configuration not stated)
inactive: [15] 97 % of control | [16] 102 % of control | [18] 103 % of control

Nc1cccc(OCCCCOc2cccc(N)c2)c1
inactive: [28] 93 % of control | [1] 101 % of control | [3] 107 % of control

CC(C)(c1ccc(OCCO)cc1)c1ccc(OCCO)cc1
inactive: [1] 97 % of control | [3] 98 % of control | [5] 93 % of control

S=C(NCc1ccccc1)Nc1ncn[nH]1
inactive: dose: 25.0 mg/kg/injection, schedule: Q01DX009 (ip), vehicle: saline 100 % of control | [7] 92 % of control | [25] 94 % of control | [8] 92 % of control | [12] 90 % of control | [26] 92 % of control

Cc1cnc(NN)nc1-c1ccccc1O
inactive: dose: 25.0 mg/kg/injection, schedule: Q04DX002 (ip), vehicle: Klucel (hydroxypropylcellulose) (HPC) 95 % of control | dose: 50.0 mg/kg/injection, schedule: Q04DX002 (ip), vehicle: Klucel (hydroxypropylcellulose) (HPC) 97 % of control | dose: 100.0 mg/kg/injection, schedule: Q04DX002 (ip), vehicle: Klucel (hydroxypropylcellulose) (HPC) 105 % of control and 110 % of control

CC(Br)(c1ccccc1)[P+](c1ccccc1)(c1ccccc1)c1ccccc1 (configuration not stated)
inactive: dose: 15.0 mg/kg/injection, schedule: Q01DX001 (ip), vehicle: carboxymethylcellulose (CMC) 96 % of control | dose: 30.0 mg/kg/injection, schedule: Q01DX001 (ip), vehicle: carboxymethylcellulose (CMC) 101 % of control

CC1NCc2c(N)nc(N)nc21 (configuration not stated)
inactive: [29] 98 % of control | [30] 95 % of control | [31] 98 % of control

COc1ccc(OC(C)=O)c(/C=C\C=O)c1
inactive: [29] 94 % of control | [30] 100 % of control | [31] 100 % of control

CC(=O)c1csc2ccccc12
inactive: [32] 106 % of control | dose: 25.0 mg/kg/injection, schedule: Q01DX009 (ip), vehicle: Klucel (hydroxypropylcellulose) (HPC) 101 % of control | dose: 50.0 mg/kg/injection, schedule: Q01DX009 (ip), vehicle: Klucel (hydroxypropylcellulose) (HPC) 106 % of control

NC12C3(Cl)C4(Cl)C5(OCCO5)C5(Cl)C3(Cl)C1(Cl)C5(Cl)C24Cl (configuration not stated)
inactive: [33] 102 % of control | [15] 102 % of control | [16] 90 % of control | [18] 102 % of control

CCCCCCCCCCCCCCCCC[As](=O)(O)CCCCCCCCCCCCCCCCC
inactive: [33] 101 % of control | [15] 95 % of control | [16] 89 % of control | [18] 97 % of control

CCCCCCCCCCCCSCO
inactive: dose: 25.0 mg/kg/injection, schedule: Q01DX009 (ip), vehicle: saline with Tween-80 118 % of control | [28] 105 % of control | [1] 101 % of control and 91 % of control | [2] 105 % of control | [3] 90 % of control | [4] 96 % of control

CCCCCC(=O)NNC(=O)CCCCC
inactive: [22] 91 % of control | [23] 91 % of control | [24] 94 % of control

C=C(CCCC)CNCCOC(=O)c1ccc([N+](=O)[O-])cc1
inactive: dose: 12.5 mg/kg/injection, schedule: Q04DX003 (ip), vehicle: saline 98 % of control | [7] 93 % of control | [8] 100 % of control

CC(C)(C)c1ccc(Sc2cnccc2C(C)(C)C)cc1
inactive: dose: 87.5 mg/kg/injection, schedule: Q04DX003 (ip), vehicle: saline with Tween-80 97 % of control | dose: 175.0 mg/kg/injection, schedule: Q04DX003 (ip), vehicle: saline with Tween-80 102 % of control | dose: 350.0 mg/kg/injection, schedule: Q04DX003 (ip), vehicle: saline with Tween-80 94 % of control

O=C(O)c1ccc(NCc2cccc(NCCCc3ccccc3)c2)cc1
inactive: [9] 92 % of control | [10] 92 % of control | [11] 93 % of control

O=c1[nH]cc(F)c(=O)[nH]1.[Tl]
inactive: dose: 3.12 mg/kg/injection, schedule: Q04DX003 (ip), vehicle: water 108 % of control | dose: 6.25 mg/kg/injection, schedule: Q04DX003 (ip), vehicle: water 107 % of control | [32] 102 % of control | dose: 12.5 mg/kg/injection, schedule: Q04DX003 (ip), vehicle: water 118 % of control

CCOC1c2ccccc2-c2ccccc2N1C(=O)c1ccccc1 (configuration not stated)
inactive: dose: 50.0 mg/kg/injection, schedule: Q04DX003 (ip), vehicle: saline with Tween-80 98 % of control | [2] 106 % of control | [4] 97 % of control and 109 % of control | [6] 103 % of control

CS(=O)(=O)Nc1ccc(NS(C)(=O)=O)c(SCc2ccccc2)c1
inactive: [14] 95 % of control | [19] 96 % of control | dose: 200.0 mg/kg/injection, schedule: Q01DX001 (ip), vehicle: Klucel (hydroxypropylcellulose) (HPC) 98 % of control | [20] 89 % of control | [17] 95 % of control | [21] 102 % of control
